Where “and” joins values, the source holds several entries; their conditions need not be identical. Equal values may be shown once.
Target: T1, UmChlE (Mycosarcoma maydis, UniProt A0A060S684, P492L)
T1 construct: purification of the chlorogenic acid esterase UmChlE from culture supernatant of U. maydis was accomplished by three complementary separation steps; made in house; host or cells: Ustilago maydis itself (native producer), culture supernatant; Q Sepharose FF, preparative IEF, polyamide column
Experiment: Kinetic parameters of UmChlE from initial hydrolysis rates
Assay type: biochemical, Ustilago maydis
Settings: 0.005 - 1 mM substrate, 60 min, 37 °C, pH 7.5
Procedure: Km and vmax values were calculated with non-linear regression using SigmaPlot 10.0 (Systat Software Inc., Chicago, USA). Blanks were carried out for all assays using water instead of enzyme. For calculation of kcat the molecular mass was determined using denaturing SDS-PAGE.
Kinetic properties were determined from initial hydrolysis rates for the most preferred substrates chlorogenic acid, MFA and MpCA. […] Consequently, the catalytic efficiency (kca/Km), a good indicator for enzyme efficiency and specificity, was better for chlorogenic acid than for the two synthetic substrates.

Row | Compound | Km [µM] | Km (listed as MpCA)
1 | O=C(/C=C/c1ccc(O)c(O)c1)O[C@@H]1C[C@](O)(C(=O)O)C[C@@H](O)[C@H]1O [chlorogenic acid] | 19.6 | –
2 | COC(=O)/C=C/c1ccc(O)c(OC)c1 [methyl ferulate] | 102 | –
3 | COC(=O)/C=C/c1ccc(O)cc1 [methyl p-coumarate] | – | 64.1 µM and 64 µM
